Measurements as given in patent publication US20240116857A1 (St. Louis University, priority 2022, published 2024).

system: E. coli BW25113; assay: MIC, 2-fold broth dilution, E. coli BW25113; assay type: cell-based, Escherichia coli; conditions: E. coli BW25113; asterisk in column 1-10

**Q.** “1,1′-((([1,1′-biphenyl]-4,4′-dicarbonyl)bis(azanediyl))bis(2-bromo-4,1-phenylene))bis(1-methylpiperidin-1-ium) [Example 88]” was tested. Which “MIC, μM 1-10” value did it give?
**A.** Its value is “* (1-10)”.

same assay, conditions: E. coli BW25113; asterisk in column >50

**Q.** “4,4′-(([1,1′-biphenyl]-4,4′-dicarbonyl)bis(azanediyl))bis(1,2-dimethylpyridin-1-ium) [Example 34]” was tested. Which “MIC, μM >50” value did it give?
**A.** Its value is “* (>50)”.

**Q.** How did the “MIC, μM >50” value turn out when “4,4′-(([1,1′-biphenyl]-4,4′-dicarbonyl)bis(azanediyl))bis(3-hydroxy-N,N,N-trimethylbenzenaminium) [Example 57]” was run?
**A.** Its value is “* (>50)”.

same assay, conditions: Escherichia coli; E. coli BW25113; asterisk in column 10-50; read-out: MIC, μM 10-50

**Q.** For C[n+]1ccc(NC(=O)c2ccc(-c3ccc(C(=O)Nc4cc[n+](C)cc4)cc3)cc2)cc1 [Example 8], which MIC is on record?
**A.** Its MIC is 10 to 50 µM.

**Q.** C[n+]1ccc(Oc2ccc(NC(=O)c3ccc(C(=O)Nc4ccc(Oc5cc[n+](C)cc5)cc4)cc3)cc2)cc1 [Example 13, 4,4′-(((terephthaloylbis(azanediyl))bis(4,1-phenylene))bis(oxy))bis(1-methylpyridin-1-ium)] was tested. Which MIC did it give?
**A.** Its MIC is 10 to 50 µM.

**Q.** Which MIC does the source give for C[N+](C)(C)c1ccc(NC(=O)c2ccc(-c3ccc(C(=O)Nc4ccc([N+](C)(C)C)cc4)cc3)cc2)cc1 [Example 23, 4,4′-(([1,1′-biphenyl]-4,4′-dicarbonyl)bis(azanediyl))bis(N,N,N-trimethylbenzenaminium)] here?
**A.** Its MIC is 10 to 50 µM.

**Q.** For Cc1cc(NC(=O)c2ccc(-c3ccc(C(=O)Nc4cc[n+](C)c(C)c4)cc3)cc2)cc[n+]1C [Example 29, 4,4′-(([1,1′-biphenyl]-4,4′-dicarbonyl)bis(azanediyl))bis(1,2-dimethylpyridin-1-ium)], which MIC is on record?
**A.** Its MIC is 10 to 50 µM.

same assay, conditions: Escherichia coli; E. coli BW25113; asterisk in column >50; read-out: MIC, μM >50

**Q.** O=C(Nc1ccncc1)c1ccc(C(=O)Nc2ccncc2)cc1 [Example 1, N^1,N^4-di(pyridin-4-yl)terephthalamide] was tested. Which MIC did it give?
**A.** Its MIC is greater than 50 µM.

**Q.** How did the MIC turn out when C[n+]1ccc(NC(=O)c2ccc(C(=O)Nc3cc[n+](C)cc3)cc2)cc1 [Example 2, 4,4′-(terephthaloylbis(azanediyl))bis(1-methylpyridin-1-ium)] was run?
**A.** Its MIC is greater than 50 µM.

**Q.** For O=C(Nc1ccncc1)c1ccc2cc(C(=O)Nc3ccncc3)ccc2c1 [Example 3, N^2,N^6-di(pyridin-4-yl)naphthalene-2,6-dicarboxamide], which MIC is on record?
**A.** The MIC was greater than 50 µM.

**Q.** How did the MIC turn out when C[n+]1ccc(NC(=O)c2ccc3cc(C(=O)Nc4cc[n+](C)cc4)ccc3c2)cc1 [Example 4, 4,4′-((naphthalene-2,6-dicarbonyl)bis(azanediyl))bis(1-methylpyridin-1-ium)] was run?
**A.** Its MIC is greater than 50 µM.

**Q.** How did the MIC turn out when O=C(Nc1ccncc1)[C@H]1CC[C@H](C(=O)Nc2ccncc2)CC1 [Example 5, (E)-N^1,N^4-di(pyridin-4-yl)cyclohexane-1,4-dicarboxamide] was run?
**A.** Its MIC is greater than 50 µM.

**Q.** How did the MIC turn out when C[n+]1ccc(NC(=O)[C@H]2CC[C@H](C(=O)Nc3cc[n+](C)cc3)CC2)cc1 [Example 6, 4,4′-((E)-cyclohexanedicarbonylbis(azanediyl))bis(1-methylpyridin-1-ium)] was run?
**A.** The MIC was greater than 50 µM.

**Q.** For O=C(Nc1ccncc1)c1ccc(-c2ccc(C(=O)Nc3ccncc3)cc2)cc1 [Example 7, N^4,N^4′-di(pyridin-4-yl)-[1,1′-biphenyl]-4,4′-dicarboxamide], which MIC is on record?
**A.** Its MIC is greater than 50 µM.

**Q.** How did the MIC turn out when O=C(Nc1ccc(Nc2ccncc2)cc1)c1ccc(C(=O)Nc2ccc(Nc3ccncc3)cc2)cc1 [Example 9, N^1,N^4-bis(4-(pyridin-4-ylamino)phenyl)terephthalamide] was run?
**A.** Its MIC is greater than 50 µM.

**Q.** With O=C(Nc1ccc(Nc2ccccn2)cc1)c1ccc(C(=O)Nc2ccc(Nc3ccccn3)cc2)cc1 [Example 10, N^1,N^4-bis(4-(pyridin-2-ylamino)phenyl)terephthalamide] as the molecule, how does the MIC read?
**A.** Its MIC is greater than 50 µM.

**Q.** For O=C(Nc1ccc(Oc2ccncc2)cc1)c1ccc(C(=O)Nc2ccc(Oc3ccncc3)cc2)cc1 [Example 11, N^1,N^4-bis(4-(pyridin-4-yloxy)phenyl)terephthalamide], which MIC is on record?
**A.** Its MIC is greater than 50 µM.

**Q.** For O=C(Nc1ccc(Cc2ccncc2)cc1)c1ccc(C(=O)Nc2ccc(Cc3ccncc3)cc2)cc1 [Example 12, N^1,N^4-bis(4-(pyridin-4-ylmethyl)phenyl)terephthalamide], which MIC is on record?
**A.** The MIC was greater than 50 µM.

**Q.** C[n+]1ccccc1Nc1ccc(NC(=O)c2ccc(C(=O)Nc3ccc(Nc4cccc[n+]4C)cc3)cc2)cc1 [Example 14, 2,2′-(((terephthaloylbis(azanediyl))bis(4,1-phenylene))bis(azanediyl))bis(1-methylpyridin-1-ium)] was tested. Which MIC did it give?
**A.** Its MIC is greater than 50 µM.

**Q.** With O=C(Nc1ccc(Nc2ccncc2)cc1)c1ccc(-c2ccccc2)cc1 [Example 15, N-(4-(pyridin-4-ylamino)phenyl)-[1,1′-biphenyl]-4-carboxamide] as the molecule, how does the MIC read?
**A.** Its MIC is greater than 50 µM.

**Q.** How did the MIC turn out when O=C(Nc1ccc(Nc2ccncc2)cc1)c1ccc(-c2ccc(C(=O)Nc3ccc(Nc4ccncc4)cc3)cc2)cc1 [Example 16, N^4,N^4′-bis(4-(pyridin-4-ylamino)phenyl)-[1,1′-biphenyl]-4,4′-dicarboxamide] was run?
**A.** The MIC was greater than 50 µM.

**Q.** Which MIC does the source give for C[n+]1ccc(Nc2ccc(NC(=O)c3ccc(-c4ccccc4)cc3)cc2)cc1 [Example 18, 4-((4-([1,1′-biphenyl]-4-ylcarboxamido)phenyl)amino)-1-methylpyridin-1-ium] here?
**A.** Its MIC is greater than 50 µM.

**Q.** With O=C(Nc1ccc(Nc2ccncc2)cc1)c1ccc(C(=O)Nc2ccc(Nc3ccncc3)cc2)c(Cl)c1 [Example 19, 2-chloro-N^1,N^4-bis(4-(pyridin-4-ylamino)phenyl)terephthalamide] as the molecule, how does the MIC read?
**A.** Its MIC is greater than 50 µM.

**Q.** Which MIC does the source give for O=C(Nc1ccc(Nc2ccncc2)cc1)c1ccc2cc(C(=O)Nc3ccc(Nc4ccncc4)cc3)ccc2c1 [Example 21, N^2,N^6-bis(4-(pyridin-4-ylamino)phenyl)naphthalene-2,6-dicarboxamide] here?
**A.** Its MIC is greater than 50 µM.

**Q.** With CN(C)c1ccc(NC(=O)c2ccc(-c3ccc(C(=O)Nc4ccc(N(C)C)cc4)cc3)cc2)cc1 [Example 22, N^4,N^4′-bis(4-(dimethylamino)phenyl)-[1,1′-biphenyl]-4,4′-dicarboxamide] as the molecule, how does the MIC read?
**A.** The MIC was greater than 50 µM.

**Q.** Which MIC does the source give for O=C(Nc1ccc(Nc2ccncc2)cc1)c1ccc(C(=O)Nc2ccc(Nc3ccncc3)cc2)c([N+](=O)[O-])c1 [Example 24, 2-nitro-N^1,N^4-bis(4-(pyridin-4-ylamino)phenyl)terephthalamide] here?
**A.** The MIC was greater than 50 µM.

**Q.** With O=S(=O)(Nc1ccncc1)c1ccc(-c2ccc(S(=O)(=O)Nc3ccncc3)cc2)cc1 [Example 26, N^4,N^4′-di(pyridin-4-yl)-[1,1′-biphenyl]-4,4′-disulfonamide] as the molecule, how does the MIC read?
**A.** Its MIC is greater than 50 µM.

**Q.** Cc1cc(NC(=O)c2ccc(-c3ccc(C(=O)Nc4ccnc(C)c4)cc3)cc2)ccn1 [Example 27, N^4,N^4′-bis(2-methylpyridin-4-yl)-[1,1′-biphenyl]-4,4′-dicarboxamide] was tested. Which MIC did it give?
**A.** Its MIC is greater than 50 µM.

**Q.** For Cc1cnccc1NC(=O)c1ccc(-c2ccc(C(=O)Nc3ccncc3C)cc2)cc1 [Example 28, N^4,N^4′-bis(3-methylpyridin-4-yl)-[1,1′-biphenyl]-4,4′-dicarboxamide], which MIC is on record?
**A.** Its MIC is greater than 50 µM.

**Q.** Which MIC does the source give for COc1cc(N(C)C)ccc1NC(=O)c1ccc(-c2ccc(C(=O)Nc3ccc(N(C)C)cc3OC)cc2)cc1 [Example 31, N^4,N^4′-bis(4-(dimethylamino)-2-methoxyphenyl)-[1,1′-biphenyl]-4,4′-dicarboxamide] here?
**A.** The MIC was greater than 50 µM.

**Q.** For COc1cc([N+](C)(C)C)ccc1NC(=O)c1ccc(-c2ccc(C(=O)Nc3ccc([N+](C)(C)C)cc3OC)cc2)cc1 [Example 32], which MIC is on record?
**A.** The MIC was greater than 50 µM.

**Q.** COc1cc(NC(=O)c2ccc(-c3ccc(C(=O)Nc4ccc(N(C)C)c(OC)c4)cc3)cc2)ccc1N(C)C [Example 33, N^4,N^4′-bis(4-(dimethylamino)-3-methoxyphenyl)-[1,1′-biphenyl]-4,4′-dicarboxamide] was tested. Which MIC did it give?
**A.** The MIC was greater than 50 µM.

**Q.** With Cc1cc(NC(=O)c2ccc(-c3ccc(C(=O)Nc4ccc(N(C)C)c(C)c4)cc3)cc2)ccc1N(C)C [Example 36, N^4,N^4′-bis(4-(dimethylamino)-3-methylphenyl)-[1,1′-biphenyl]-4,4′-dicarboxamide] as the molecule, how does the MIC read?
**A.** Its MIC is greater than 50 µM.

**Q.** With Cc1cc(NC(=O)c2ccc(-c3ccc(C(=O)Nc4ccc([N+](C)(C)C)c(C)c4)cc3)cc2)ccc1[N+](C)(C)C [Example 37, 4,4′-(([1,1′-biphenyl]-4,4′-dicarbonyl)bis(azanediyl))bis(N,N,N,2-tetramethylbenzenaminium)] as the molecule, how does the MIC read?
**A.** The MIC was greater than 50 µM.

**Q.** CN(C)c1ccc(NC(=O)c2ccc(-c3ccc(C(=O)Nc4ccc(N(C)C)c(Cl)c4)cc3)cc2)cc1Cl [Example 38, N^4,N^4′-bis(3-chloro-4-(dimethylamino)phenyl)-[1,1′-biphenyl]-4,4′-dicarboxamide] was tested. Which MIC did it give?
**A.** The MIC was greater than 50 µM.

**Q.** Which MIC does the source give for Cc1cc(C(=O)Nc2ccc(N(C)C)cc2)ccc1-c1ccc(C(=O)Nc2ccc(N(C)C)cc2)cc1 [Example 40, N^4,N^4′-bis(4-(dimethylamino)phenyl)-2-methyl-[1,1′-biphenyl]-4,4′-dicarboxamide] here?
**A.** The MIC was greater than 50 µM.

**Q.** Which MIC does the source give for O=C(Nc1ccc(Nc2ccncc2)cc1)c1ccc(C(=O)Nc2ccc(Nc3ccncc3)cc2)c(C(F)(F)F)c1 [Example 41, N^1,N^4-bis(4-(pyridin-4-ylamino)phenyl)-2-(trifluoromethyl)terephthalamide] here?
**A.** The MIC was greater than 50 µM.

**Q.** Which MIC does the source give for Cc1cc(C(=O)Nc2ccc([N+](C)(C)C)cc2)ccc1-c1ccc(C(=O)Nc2ccc([N+](C)(C)C)cc2)cc1 [Example 42, 4,4′-((2-methyl-[1,1′-biphenyl]-4,4′-dicarbonyl)bis(azanediyl))bis(N,N,N-trimethylbenzenaminium)] here?
**A.** The MIC was greater than 50 µM.

**Q.** For O=C(Nc1ccc(Nc2ccncc2)cc1)c1ccc(C(=O)Nc2ccc(Nc3ccncc3)cc2)c(OC(F)(F)F)c1 [Example 43, N^1,N^4-bis(4-(pyridin-4-ylamino)phenyl)-2-(trifluoromethoxy)terephthalamide], which MIC is on record?
**A.** The MIC was greater than 50 µM.

**Q.** With CN(C)C1CCC(NC(=O)c2ccc(-c3ccc(C(=O)NC4CCC(N(C)C)CC4)cc3)cc2)CC1 (stereo not drawn) [Example 46, N^4,N^4′-bis(4-(dimethylamino)cyclohexyl)-[1,1′-biphenyl]-4,4′-dicarboxamide] as the molecule, how does the MIC read?
**A.** Its MIC is greater than 50 µM.

**Q.** Which MIC does the source give for O=C(Nc1ccc(Nc2ccncc2)cc1)c1ccc(Cc2ccc(C(=O)Nc3ccc(Nc4ccncc4)cc3)cc2)cc1 [Example 48] here?
**A.** Its MIC is greater than 50 µM.

**Q.** For CN(C)c1ccc(NC(=O)c2ccc(Cc3ccc(C(=O)Nc4ccc(N(C)C)cc4)cc3)cc2)cc1 [Example 49, 4,4′-methylenebis(N-(4-(dimethylamino)phenyl)benzamide)], which MIC is on record?
**A.** Its MIC is greater than 50 µM.
